In patent US5395757A, “Method for the hydrolysis of sugar compounds and reagent therefor” (Takara Shuzo Co., Ltd., priority 1991, dated 1995):

Legend:
lacto-N-biosidase [1] = assay: Substrate specificity of lacto-N-biosidase (hydrolysis of oligosaccharides, HPLC); format: biochemical, Streptomyces sp 142; settings: for hydrolysis by lacto-N-biosidase: oligosaccharides labelled with 2-aminopyridine
Procedure: Lacto-N-biosidase was assayed by being incubated for 20 min with the compound described by formula II below at the concentration of 2 μM at 37° C. in 10 μl of 100 mM potassium phosphate buffer, pH 6.0.
wherein PA represents a pyridylamino residue. […] Then 40 μl of 1% trifluoroacetic acid was added to the reaction mixture to stop the reaction. A portion containing 10 pmol of PA-oligosaccharides was then analyzed by HPLC with an amino-silica column (Palpak Type N column, 4.6×250 mm, Takara Shuzo), and detected by fluorescence with the excitation and emission wavelengths of 310 and 380 nm, respectively. Elution was at the flow rate of 1.0 ml/min at 40° C. with a 70:30 (v/v) mixture of acetonitrile and 0.2M triethylamine acetate buffer, pH 7.3. The degree of hydrolysis was calculated from the peak areas of the substrate and the product, PA-lactose, in comparison with the peak area of the corresponding standard PA-oligosaccharide. One unit of activity was defined as the amount of enzyme needed to release 1 μmol of PA-lactose per minute under the conditions described above.

[2] = tested on: lacto-N-biosidase and α-1,3/4 fucosidase; assay: Digestion with a mixture of lacto-N-biosidase and α-1,3/4 fucosidase; format: biochemical; settings: lacto-N-biosidase plus α-1,3/4 fucosidase
Excerpt: The method and the reagent of this invention can be used in studies done to identify type 1 structures in glycoconjugates, to distinguish type 1 oligosaccharides from type 2 oligosaccharides, and to elucidate the functions of lacto-N-biosyl residues in glycoconjugates. In particular, with its use, the Le^a structure can be easily distinguished from the Le^x structure by use of lacto-N-biosidase and α-1,3/4 fucosidase (Ogata-Arakawa et al., Arch. Biochem. Biophys. 181, 353, 1977; Scudder et al., J. Biol. Chem. 265, 16472, 1990; Sano et al., J. Biol. Chem. 267, 1522, 1992).

lacto-N-biosidase [3] = assay: Structural analysis of reaction products of lacto-N-biosidase (Example 3); format: biochemical, Streptomyces sp 142; settings: about 100 nmol substrate, 0.6 mU enzyme, 60 h at 37° C., pH 6.0
Procedure: To elucidate the reaction products of lacto-N-biosidase obtained by the method of example 1, the structures of the enzyme reaction products were analyzed in detail with the PA-oligosaccharide shown as formula VI below as the substrate. PA-oligosaccharide described by formula VI (about 100 nmol; Takara Shuzo Co.) mixed with lacto-N-biosidase (total, 0.6 mU) prepared as described in example 1 was digested for 60 h at 37° C. in a final volume of 360 μl containing 0.1M potassium phosphate buffer, pH 6.0. The reaction mixture was pyridylaminated by the method described in U.S. Pat. No. 4,975,533 and analyzed by HPLC with an amino-silica column. There were two peaks of PA-oligosaccharides: fractions 1 and 2. The elution position of fraction 1 was the same as that of the PA-oligosaccharide described by formula VII, and the elution position of fraction 2 was the same as that of PA-oligosaccharide described by formula VIII below. The amounts of these two products, calculated from the peak areas of fractions 1 and 2 , were identical to that of the PA-oligosaccharide substrate of formula VI.

Compound | hydrolysis by lacto-N-biosidase (lacto-N-biosidase [1]) | further results
CC(=O)N[C@H]1[C@H](O[C@H]2[C@@H](O)[C@@H](CO)O[C@@H](O[C@@H]([C@H](O)[C@@H](O)CNc3ccccn3)[C@H](O)CO)[C@@H]2O)O[C@H](CO)[C@@H](O)[C@@H]1O[C@@H]1O[C@H](CO)[C@H](O)[C@H](O)[C@H]1O[C@@H]1O[C@@H](C)[C@@H](O)[C@@H](O)[C@@H]1O | did not hydrolyze | 
CC(=O)N[C@H]1[C@H](O[C@H]2[C@@H](O)[C@@H](CO)O[C@@H](O[C@@H]([C@H](O)[C@@H](O)CNc3ccccn3)[C@H](O)CO)[C@@H]2O)O[C@H](CO)[C@@H](O[C@@H]2O[C@H](CO)[C@H](O)[C@H](O)[C@H]2O)[C@@H]1O | did not hydrolyze | 
CC(=O)N[C@H]1[C@H](O[C@H]2[C@@H](O)[C@@H](CO)O[C@@H](O[C@@H]([C@H](O)[C@@H](O)CNc3ccccn3)[C@H](O)CO)[C@@H]2O)O[C@H](CO)[C@@H](O)[C@@H]1O[C@@H]1O[C@H](CO)[C@H](O)[C@H](O)[C@H]1O | specifically hydrolyzed | 
CC(=O)N[C@H]1[C@H](O[C@H]2[C@@H](O)[C@@H](CO)O[C@@H](O[C@@H]([C@H](O)[C@@H](O)CNc3ccccn3)[C@H](O)CO)[C@@H]2O)O[C@H](CO)[C@@H](O[C@@H]2O[C@H](CO)[C@H](O)[C@H](O)[C@H]2O)[C@@H]1O[C@@H]1O[C@@H](C)[C@@H](O)[C@@H](O)[C@@H]1O [PA-lacto-N-fucopentaose III] |  | product obtained on treatment with the mixture of the two enzymes [2]: PA-lacto-N-neotetraose was obtained
CC(=O)N[C@H]1[C@H](O[C@H]2[C@@H](O)[C@@H](CO)O[C@@H](O[C@@H]([C@H](O)[C@@H](O)CNc3ccccn3)[C@H](O)CO)[C@@H]2O)O[C@H](CO)[C@@H](O[C@@H]2O[C@@H](C)[C@@H](O)[C@@H](O)[C@@H]2O)[C@@H]1O[C@@H]1O[C@H](CO)[C@H](O)[C@H](O)[C@H]1O [PA-lacto-N-fucopentaose II] |  | product obtained on treatment with the mixture of the two enzymes [2]: PA-lactose was obtained
CC(=O)N[C@H]1[C@H](O[C@@H]2[C@H](O)[C@@H](O)[C@H](O[C@@H]([C@H](O)[C@@H](O)CNc3ccccn3)[C@H](O)CO)O[C@@H]2CO)O[C@H](CO)[C@H](O)[C@@H]1O[C@@H]1O[C@H](CO)[C@H](O)[C@H](O)[C@H]1O [asialo GM1 tetrasaccharide] | did not hydrolyze | 
CC(=O)N[C@H]1[C@H](O[C@@H]([C@H](O)[C@H](CNc2ccccn2)NC(C)=O)[C@H](O)CO)O[C@H](CO)[C@@H](O[C@@H]2O[C@H](CO[C@H]3O[C@H](CO)[C@@H](O)[C@H](O)[C@@H]3O[C@@H]3O[C@H](CO)[C@@H](O[C@@H]4O[C@H](CO)[C@H](O)[C@H](O)[C@H]4O)[C@H](O)[C@H]3NC(C)=O)[C@@H](O)[C@H](O[C@H]3O[C@H](CO)[C@@H](O[C@@H]4O[C@H](CO)[C@@H](O)[C@H](O[C@@H]5O[C@H](CO)[C@H](O)[C@H](O)[C@H]5O)[C@H]4NC(C)=O)[C@H](O)[C@@H]3O[C@@H]3O[C@H](CO)[C@@H](O[C@@H]4O[C@H](CO)[C@H](O)[C@H](O)[C@H]4O)[C@H](O)[C@H]3NC(C)=O)[C@@H]2O)[C@@H]1O [formula III] |  | products of hydrolysis by lacto-N-biosidase (lacto-N-biosidase [1]): lacto-N-biose and the N-acetyllactosamine type of biantennary sugar chain
CC(=O)N[C@H]1[C@H](Oc2ccc([N+](=O)[O-])cc2)O[C@H](CO)[C@@H](O)[C@@H]1O[C@@H]1O[C@H](CO)[C@H](O)[C@H](O)[C@H]1O [formula V, Galβ1--3GlcNAcβ1--p--nitrophenol] |  | products of hydrolysis by lacto-N-biosidase (lacto-N-biosidase [1]): lacto-N-biose and p-nitrophenol
CC(=O)N[C@H]1[C@H](O[C@@H]([C@H](O)[C@H](CNc2ccccn2)NC(C)=O)[C@H](O)CO)O[C@H](CO)[C@@H](O[C@@H]2O[C@H](CO[C@H]3O[C@H](CO)[C@@H](O)[C@H](O)[C@@H]3O[C@@H]3O[C@H](CO)[C@@H](O[C@@H]4O[C@H](CO)[C@H](O)[C@H](O)[C@H]4O)[C@H](O)[C@H]3NC(C)=O)[C@@H](O)[C@H](O[C@H]3O[C@H](CO)[C@@H](O[C@@H]4O[C@H](CO)[C@@H](O)[C@H](O[C@@H]5O[C@H](CO)[C@H](O)[C@H](O)[C@H]5O)[C@H]4NC(C)=O)[C@H](O)[C@@H]3O[C@@H]3O[C@H](CO)[C@@H](O[C@@H]4O[C@H](CO)[C@H](O)[C@H](O)[C@H]4O)[C@H](O)[C@H]3NC(C)=O)[C@@H]2O)[C@@H]1O [formula VI] |  | linkage cleaved by the enzyme reaction (lacto-N-biosidase [3]): only lacto-N-biosidic linkage in the substrate was cleaved
CC(=O)N[C@H]1[C@H](O[C@H]2[C@@H](O)[C@@H](CO)O[C@@H](O[C@H]3[C@H](O)[C@@H](O)C(O)O[C@@H]3CO)[C@@H]2O)O[C@H](CO)[C@@H](O)[C@@H]1O (stereo partly drawn) [lacto-N-triose] | did not hydrolyze | 
poly-N-acetyllactosamine | did not hydrolyze | 
sialyl lacto-N-tetraose | did not hydrolyze | 
